{"source": "patent US8633166B2", "about": "“Methicillin-resistant Staphylococcus aureus active metabolites” (priority 2009, dated 2014)", "key": {"[1]": {"test_system": "Methicillin-resistant Staphylococcus aureus", "assay": "In vivo MRSA assay, thigh infection in a murine model", "parameters": "species or system Mice (CD-1)", "conditions": "for number of MRSA recovered from muscle tissue: 48 hours, neutropenic mice", "description": "The in vivo antimicrobial activity for the isolated glycosides is represented in FIGS. 2A and 2B. Mice (CD-1) were purchased from Harlan Inc. and acclimatized up to 5 days before use. Food and water were available ad libitum throughout the study. They were rendered neutropenic by two injections of cyclophosphamide (100 mg/kg) given intraperitoneally, one and four days before infection. A volume of 50 uL suspension of Methicillin-resistant Staphylococcus aureus (1.5×10^6 live organisms) was injected intramuscularly (1M) into each of the two rear thighs. Each thigh was considered as an individual data point (total of 4 data points for each treatment). These mice were randomly distributed into the control or treatment groups (n=2/group).\nTreatment with the test compound (1) was initiated via the intraperitoneal route 2 hrs after thigh inoculation. Control animals were concurrently administered saline (mock treatment) or vancomycin in the same volume as those receiving compound (1). All animals were sacrificed after 48 hours by CO2 inhalation. Immediately following sacrifice, thigh tissue was collected from the animals, weighed, and homogenized in 5.0 mL of saline. Thigh muscle homogenate was then processed for microbiological assay to determine the number of MRSA cfu per gram of muscle tissue."}, "[2]": {"assay": "Maximum tolerated dose, preliminary experiment", "format": "in vivo, Mice (CD-1)", "conditions": "20 mg/kg IP for two days", "description": "The number of MRSA isolated from vancomycin treated animals was 2.2×10^7 g of tissue, a reduction of 72% compared to vehicle control. Similarly, the number of MRSA recovered after treatment with compound (I) at 3 mg/kg and 15 mg/kg were 2.6×10^7 and 1.8×10^7 respectively, which correspond to a reduction of 67% and 78% as compared to vehicle control. […] To determine the maximum tolerated dose in the preliminary experiment, a maximum of 20 mg/kg of compound (1) was giving IP for two days."}, "enterococci": {"test_system": "enterococci", "assay": "In vitro MIC, for enterococci", "format": "cell-based", "conditions": "E. faecalis and E. faecium, vancomycin-susceptible and vancomycin-resistant strains", "description": "(§1) All test articles were dissolved in DMSO. Stock solutions were prepared at 40-fold the highest concentration in the test plate. The final concentration of DMSO in the test system was 2.5%.\n(§2) The medium employed for the MIC assay was Mueller Hinton II Broth (MHB II-Becton Dickinson, #212322, Lot #9044411) for most of the organisms. MHB II was supplemented with 2% lysed horse blood (Cleveland Scientific Lot #22299-1) to accommodate the growth of Streptococcus pneumoniae, Streptococcus pyogenes and Streptococcus agalactiae. The media were prepared at 102.5% the normal weight to offset the dilution created by the addition of 5 μL drug solution to each well of the microdilution panels. […]\n(§3) Plates were stacked 3 high, covered with a lid on the top plate, placed in plastic bags, and incubated at 35° C. for approximately 18 hours for most of the isolates. The Streptococcus plates were read after 20 hours of incubation. […] The MIC was read and recorded as the lowest concentration of drug that inhibited visible growth of the organism."}, "streptococci": {"test_system": "streptococci", "assay": "In vitro MIC, streptococci", "format": "cell-based, Streptococcus", "conditions": "highest concentrations considered for MIC readings", "description": "as §1, §2, §3"}}, "data": [{"smiles": "C[C@@H]1O[C@@H](Oc2c(-c3ccc(O)cc3)oc3cc(O)cc(O)c3c2=O)[C@H](OC(=O)/C=C/c2ccc(O)cc2)[C@H](OC(=O)/C=C/c2ccc(O)cc2)[C@H]1O", "note": "[Compound 1, kaempferol 3-O-α-L-(2″,3″-di-E-p-coumaroyl)rhamnoside]", "values": [{"measurement": "reduction compared to vehicle control", "setting": "[1]; 3 mg/kg", "result": 67, "unit": "%"}, {"measurement": "number of MRSA recovered from muscle tissue", "setting": "[1]; 3 mg/kg intraperitoneal", "result": "2.6×10^7 cfu/g"}, {"measurement": "reduction compared to vehicle control", "setting": "[1]; 15 mg/kg", "result": 78, "unit": "%"}, {"measurement": "number of MRSA recovered from muscle tissue", "setting": "[1]; 15 mg/kg intraperitoneal", "result": "1.8×10^7 cfu/g"}, {"measurement": "acute toxicity at maximum dose given", "setting": "[2]", "result": "No untoward effect"}, {"measurement": "activity against enterococci", "setting": "enterococci", "result": "inhibited multiple strains"}, {"measurement": "activity against the streptococci", "setting": "streptococci", "result": "Neither compound was active"}]}]}
